Data on seven molecules can be found in article PMC5785503, “Development of novel fluorescent histamine H1-receptor antagonists to study ligand-binding kinetics in living cells” (Scientific Reports, 2018).

Assay [1] concerns the target H1R. Set-up: method as in PMID 22007643. Conditions: parent compound at the H1R; cited from earlier work.
Assay [2] concerns the target T1, human H1R (Homo sapiens, UniProt P35367).
T1 construct: expressed in transfected cells
Description: [3H]mepyramine competition radioligand binding, HEK293T cell homogenates. The settings on record: read-out: Radioligand binding pKi (converted). Here is the method: […]. […] […]. All ligand binding was performed under gentle agitation. […] […].

Assay [3] addresses T2, Nluc-H1R (Homo sapiens, UniProt P35367). The assay is described as follows: NanoBRET saturation binding in whole HEK293T cells. The text has this:
(§1) Immediately before experimentation, media was replaced with HBSS. […] […]. […] […].

Assay [4] has as its target T2, Nluc-H1R. Description: NanoBRET association kinetics in whole HEK293T cells. Format: binding. Conditions: for Kd: kinetic KD (koff/kon), whole HEK293T cells expressing Nluc-H1R, read-out: NanoBRET kinetics pKD (converted); for residence time: read-out: NanoBRET kinetics Tr (residence time); for koff: read-out: NanoBRET kinetics koff, whole HEK293T cells expressing Nluc-H1R, room temperature; for kon: read-out: NanoBRET kinetics kon, whole HEK293T cells expressing Nluc-H1R, room temperature, non-specific 10 μM doxepin.
Description: as §1

The target of assay [5] is T3, H1-YFP (Homo sapiens, UniProt P35367).
T3 construct: expressed in transfected cells
Format: cell-based. The procedure: CHO H1R and CHO H1-YFP cells were grown to approximately 80% confluency on 8-well Labtek chambered coverglasses (Nunc Nalgene). […] Cells were then incubated with the required concentration of fluorescent ligand for 30 min prior to the collection of single equatorial confocal images. Images were obtained using a Zeiss LSM710 confocal microscope (Carl Zeiss GmbH, Jena, Germany) fitted with a 63× plan-Apochromat NA1.3 Ph3 oil-immersion lens within the School of Life Sciences Imaging Unit. […] For all experiments a pinhole of 1 Airy Unit was used and fixed laser power, gain and offset for the BY630 containing compounds were kept the same for samples within each experiment.

In assay [6] the target is T2, Nluc-H1R. The assay is described as follows: NanoBRET saturation binding in HEK293T cell membranes. Conditions: value used in Cheng-Prusoff equation, read-out: KD of labelled ligand in membranes. Here is the method: (§2) HEK293T cell stably expressing Nluc-H1 were grown to confluence in 500 cm^2 dishes. Normal growth media was replaced with ice-cold PBS and the cells were removed from the dish by scraping. The cells were then transferred to a 50 ml tube and centrifuged at 250 × g for 5 min. The supernatant was removed and the resulting pellets stored at −80 °C. Thawed pellets were resuspended in PBS and homogenized using an electrical homogenizer in 10 × 2 s bursts. Unbroken cells and nuclei were removed by centrifugation (1200 × g for 10 min) and the supernatant subsequently centrifuged at 41,415 g for 30 min. The membrane pellet was resuspended in PBS and homogenized by 20 passes of a glass-on-Teflon homogenizer. Protein concentration was determined using a BCA protein assay and membranes stored at −80 °C until required.
(§3) Immediately before experimentation, media was replaced with HBSS. […] For association kinetics experiments, the required concentration of fluorescent ligand in the presence or absence of 10 µM doxepin was added simultaneously. […] Non-specific binding was determined by the addition of […] 10 µM doxepin.
In general terms: Bioluminescence resonance energy transfer reports proximity on the nanometre scale.

Assay [7] concerns the target T2, Nluc-H1R. Description: NanoBRET association kinetics in HEK293T cell membranes. The class given is binding. Conditions: kinetic, n = 4, read-out: pKD (calculated affinity) in membranes (converted). Here is the method: as §2, §3
From association kinetic data, non-specific binding was determined for each concentration of fluorescent ligand at each time point by the addition of 10 µM doxepin and was subtracted from total binding.

Where [8] appears, read: HEK293T cells expressing Nluc-H1R, mean ± SEM, read-out: NanoBRET saturation pKD (converted).
The mark [9] stands for this setting: NanoBRET, value used in Cheng-Prusoff equation, read-out: KD of labelled ligand in whole cells.

T2 sequence (P35367 2-487 limits assumed): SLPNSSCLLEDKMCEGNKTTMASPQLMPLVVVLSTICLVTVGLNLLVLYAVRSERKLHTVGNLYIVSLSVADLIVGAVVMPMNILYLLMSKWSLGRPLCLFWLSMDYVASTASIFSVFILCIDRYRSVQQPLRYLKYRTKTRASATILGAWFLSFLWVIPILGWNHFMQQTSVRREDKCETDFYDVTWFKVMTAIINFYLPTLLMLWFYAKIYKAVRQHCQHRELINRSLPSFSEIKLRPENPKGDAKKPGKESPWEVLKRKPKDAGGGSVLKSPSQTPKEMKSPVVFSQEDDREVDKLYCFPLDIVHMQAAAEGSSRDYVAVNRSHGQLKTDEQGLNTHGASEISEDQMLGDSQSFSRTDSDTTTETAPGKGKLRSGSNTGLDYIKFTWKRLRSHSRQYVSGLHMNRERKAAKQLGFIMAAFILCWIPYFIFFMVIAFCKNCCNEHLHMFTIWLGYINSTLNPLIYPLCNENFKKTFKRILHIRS
T3 sequence (P35367 whole entry): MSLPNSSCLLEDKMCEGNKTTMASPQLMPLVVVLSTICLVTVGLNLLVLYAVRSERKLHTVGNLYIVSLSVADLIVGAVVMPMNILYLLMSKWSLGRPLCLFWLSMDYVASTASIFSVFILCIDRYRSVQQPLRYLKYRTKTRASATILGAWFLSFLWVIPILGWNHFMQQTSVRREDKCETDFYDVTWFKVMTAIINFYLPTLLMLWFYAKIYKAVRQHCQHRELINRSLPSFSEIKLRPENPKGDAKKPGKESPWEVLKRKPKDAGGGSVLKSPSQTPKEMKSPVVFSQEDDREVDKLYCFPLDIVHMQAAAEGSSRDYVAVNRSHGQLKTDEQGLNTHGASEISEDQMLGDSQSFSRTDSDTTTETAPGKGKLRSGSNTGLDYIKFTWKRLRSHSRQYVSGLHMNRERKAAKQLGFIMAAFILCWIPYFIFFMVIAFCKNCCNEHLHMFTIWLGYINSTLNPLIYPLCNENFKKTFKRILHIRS
T1 sequence (P35367 whole entry): as above

Regarding `c1ccc(Cc2ccccc2OC2CCNCC2)cc1` [VUF13816, 4-(2-benzylphenoxy)piperidine], the pKi in assay [1] was 8.20.

Turning to `C[C@H](NC(=O)CCN1CCC(Oc2ccccc2Cc2ccccc2)CC1)C(=O)N[C@@H](C)C(=O)N[C@@H](C)C(=O)NCCNC(=O)CCCCCNC(=O)COc1ccc(/C=C/C2=[N+]3C(=Cc4ccc(-c5cccs5)n4[B-]3(F)F)C=C2)cc1` [Compound 23, N-((5 S,8 S,11 S)-15-(4-(2-benzylphenoxy)piperidin-1-yl)-5,8,11-trimethyl-4,7,10,13-tetraoxo-3,6,9,12-tetraazapentadecyl)-6-(2-(4-((E)-2-(5,5-difluoro-7-(thiophen-2-yl)-5H-4λ^4,5λ^4-dipyrrolo[1,2-c:2′,1′-f][1,3,2]diazaborinin-3-yl)vinyl)phenoxy)acetamido)hexanamide], in assay [2], the Ki is 3.98 nM. Also, the Kd in assay [3] (setting [8]) was 7.94 nM. The Kd in assay [3] (setting [9]) was 9.8 nM. In assay [4], the Kd was 12.6 nM, the residence time came out at 54.1 ± 5.33 min, the koff was 0.000317 s⁻¹ and the kon is 26700 M⁻¹ s⁻¹. In addition, in assay [5], the “fluorescence after pre-treatment with unlabelled mepyramine (specificity, confocal)” value (“fluorescence after pre-treatment” for short) is “Some residual binding was observed”.

Regarding `NC(=O)C[C@H](NC(=O)CNC(=O)CNC(=O)CCN1CCC(Oc2ccccc2Cc2ccccc2)CC1)C(=O)NCCNC(=O)CCCCCNC(=O)COc1ccc(/C=C/C2=[N+]3C(=Cc4ccc(-c5cccs5)n4[B-]3(F)F)C=C2)cc1` [Compound 24, (S,E)-2-(2-(2-(3-(4-(2-benzylphenoxy)piperidin-1-yl)propanamido)acetamido)acetamido)-N^1-(2-(6-(2-(4-(2-(5,5-difluoro-7-(thiophen-2-yl)-5H-4λ^4,5λ^4-dipyrrolo[1,2-c:2′,1′-f][1,3,2]diazaborinin-3-yl)vinyl)phenoxy)acetamido)hexanamido)ethyl)succinamide], the Ki in assay [2] was 5.01 nM. Also, the Kd in assay [3] (setting [8]) is 25.1 nM. In assay [4], the Kd was 10 nM, the residence time worked out at 37.8 ± 3.44 min, the koff is 0.00045 s⁻¹ and the kon is 48300 M⁻¹ s⁻¹.

With `CC(O)[C@H](NC(=O)[C@H](C)NC(=O)[C@H](CC(N)=O)NC(=O)CCN1CCC(Oc2ccccc2Cc2ccccc2)CC1)C(=O)NCCNC(=O)CCCCCNC(=O)COc1ccc(/C=C/C2=[N+]3C(=Cc4ccc(-c5cccs5)n4[B-]3(F)F)C=C2)cc1` (stereo partly drawn) [Compound 25, (S)-2-(3-(4-(2-benzylphenoxy)piperidin-1-yl)propanamido)-N^1-((15 S,18 S)-1-(4-((E)-2-(5,5-difluoro-7-(thiophen-2-yl)-5H-4λ^4,5λ^4-dipyrrolo[1,2-c:2′,1’-f][1,3,2]diazaborinin-3-yl)vinyl)phenoxy)-15-((S)-1-hydroxyethyl)-2,9,14,17-tetraoxo-3,10,13,16-tetraazanonadecan-18-yl)succinamide], in assay [2], the Ki was 6.31 nM. In addition, in assay [3] (setting [8]), the Kd was 31.6 nM. Moreover, in assay [4], the Kd is 10 nM, the residence time came to 39.5 ± 9.4 min, the koff is 0.0005 s⁻¹ and the kon is 43300 M⁻¹ s⁻¹.

As to `COc1ccc(CN(CCN(C)CCC(=O)N[C@@H](C)C(=O)N[C@@H](C)C(=O)NCCNC(=O)CCCCCNC(=O)COc2ccc(/C=C/C3=[N+]4C(=Cc5ccc(-c6cccs6)n5[B-]4(F)F)C=C3)cc2)c2ccccn2)cc1` [Compound 10, 6-(2-(4-((E)-2-(5,5-difluoro-7-(thiophen-2-yl)-5H-4λ^4,5λ^4-dipyrrolo[1,2-c:2′,1′-f][1,3,2]diazaborinin-3-yl)vinyl)phenoxy)acetamido)-N-((10 S,13 S)-1-(4-methoxyphenyl)-5,10,13-trimethyl-8,11,14-trioxo-2-(pyridin-2-yl)-2,5,9,12,15-pentaazaheptadecan-17-yl)hexanamide], in assay [2], the Ki is 25.1 nM. In addition, the Kd in assay [3] (setting [8]) was 7.94 nM; in assay [3] (setting [9]), 9.2 nM; in assay [4] it was 5.01 nM; in assay [6], 28.8 nM; in assay [7], 3.55 nM. Further, the residence time in assay [4] stood at 4.99 ± 0.78 min. For the same molecule, the “BODIPY630/650 fluorescence localisation (confocal)” value in assay [5] is reported as “clear membrane localisation”. The “fluorescence after pre-treatment” value in assay [5] is recorded as “very little fluorescence was observed”.

Consider `COc1ccc(CN(CCN(C)CCC(=O)NCCCC(=O)N[C@@H](C)C(=O)N[C@@H](C)C(=O)NCCNC(=O)CCCCCNC(=O)COc2ccc(/C=C/C3=[N+]4C(=Cc5ccc(-c6cccs6)n5[B-]4(F)F)C=C3)cc2)c2ccccn2)cc1` [Compound 12, 5,5-difluoro-3-((E)-4-(((15 R,18 R)-1-(4-methoxyphenyl)-5,15,18-trimethyl-8,13,16,19,24,31-hexaoxo-2-(pyridin-2-yl)-2,5,9,14,17,20,23,30-octaazadotriacontan-32-yl)oxy)styryl)-7-(thiophen-2-yl)-5H-4λ^4-dipyrrolo[1,2-c:2′,1′-f][1,3,2]diazaborinin-5-uide], for which the Ki in assay [2] was 20 nM. Moreover, in assay [3] (setting [8]), the Kd is 50.1 nM. In assay [4], the Kd is 39.8 nM, the residence time amounted to 7.68 ± 0.58 min, the koff was 0.00223 s⁻¹ and the kon was 55000 M⁻¹ s⁻¹. Further, in assay [5], the “BODIPY630/650 fluorescence localisation (confocal)” value is recorded as “clear membrane localisation” and the “fluorescence after pre-treatment” value is “very little fluorescence was observed”.

Take `COc1ccc(CN(CCN(C)CCC(=O)N[C@@H](C)C(=O)N[C@@H](C)C(=O)N[C@@H](CO)C(=O)NCCNC(=O)CCCCCNC(=O)COc2ccc(/C=C/C3=[N+]4C(=Cc5ccc(-c6cccs6)n5[B-]4(F)F)C=C3)cc2)c2ccccn2)cc1` [Compound 11, 6-(2-(4-((E)-2-(5,5-difluoro-7-(thiophen-2-yl)-5H-4λ^4,5λ^4-dipyrrolo[1,2-c:2′,1′-f][1,3,2]diazaborinin-3-yl)vinyl)phenoxy)acetamido)-N-((10 S,13 S,16 S)-16-(hydroxymethyl)-1-(4-methoxyphenyl)-5,10,13-trimethyl-8,11,14,17-tetraoxo-2-(pyridin-2-yl)-2,5,9,12,15,18-hexaazaicosan-20-yl)hexanamide]: in assay [2], the Ki was 10 nM. In addition, in assay [3] (setting [8]), the Kd was 63.1 nM. In addition, in assay [4], the Kd is 6.31 nM, the residence time worked out at 8.4 ± 0.91 min, the koff is 0.0021 s⁻¹ and the kon is 330000 M⁻¹ s⁻¹. In assay [5], the “BODIPY630/650 fluorescence localisation (confocal)” value is listed as “clear membrane localisation” and the “fluorescence after pre-treatment” value is on record as “some residual cell surface fluorescence was observed”.

Broadly, the pKi is the Ki on a negative log10 scale, so that one unit is a factor of ten. By koff is commonly meant the first-order rate constant of dissociation. As usually defined, the kon is the second-order rate constant of association.
